Source: patent US4604380A, “C-23-substituted mycaminosyltylonolide compounds, pharmaceutical compositions and methods of use” (Eli Lilly and Company, priority 1985, dated 1986)
Converted amounts (≈) assume the structure as drawn. “And” between values parts separate entries of the source, which are not always exact repeats. Identical values can stand only once. Like-named read-outs stand apart in the source and are kept apart here.

How the values were obtained:
[1] = tested on: Streptococcus pneumoniae Park I; test: microbe, parasite or virus in culture; type: cell-based; conditions: read-out: MIC
Method: (§1) The MIC's s in Table III were determined by standard agar-dilution assays. The MIC's in Table IV were obtained using a conventional broth-dilution microtiter test.

[2] = tested on: Staphylococcus aureus X1.1; test: MIC, standard agar-dilution assay (Table III); type: cell-based
Method: as §1

[3] = tested on: Staphylococcus aureus X400; test: MIC, standard agar-dilution assay (Table III); type: cell-based; conditions: Staphylococcus aureus, X400
Method: as §1

[4] = tested on: Haemophilus influenzae 76; test: MIC, standard agar-dilution assay (Table III); type: cell-based; conditions: agar dilution; Haemophilus influenzae 76, ampicillin-resistant strain; read-out: MIC
Method: as §1

[5] = tested on: Streptococcus Group D 2041; test: MIC, standard agar-dilution assay (Table III); type: cell-based; conditions: GROUPD2041
Method: as §1

[6] = tested on: Haemophilus influenzae C.L.; test: MIC, standard agar-dilution assay (Table III); type: cell-based; conditions: agar dilution; Haemophilus influenzae C.L., ampicillin-sensitive strain; read-out: MIC
Method: as §1

[7] = tested on: Staphylococcus aureus V41; test: MIC, standard agar-dilution assay (Table III); type: cell-based; conditions: Staphylococcus aureus V41, penicillin-resistant strain
Method: as §1

[8] = tested on: Streptococcus Group D X66; test: MIC, standard agar-dilution assay (Table III); type: cell-based
Method: as §1

[9] = tested on: Staphylococcus epidermidis EPI1; test: MIC, standard agar-dilution assay (Table III); type: cell-based; conditions: Staphylococcus epidermidis, EPI1
Method: as §1

[10] = tested on: Staphylococcus epidermidis 222; test: MIC, standard agar-dilution assay (Table III); type: cell-based
Method: as §1

[11] = tested on: Staphylococcus aureus S13E; test: MIC, standard agar-dilution assay (Table III); type: cell-based
Method: as §1

[12] = tested on: Streptococcus pyogenes C203; test: MIC, standard agar-dilution assay (Table III); type: cell-based
Method: as §1

Streptococcus pyogenes = test: ED50 vs Streptococcus pyogenes experimental infection in mice (Table VI); type: in vivo; conditions: po, two doses, several values = results from more than one test, read-out: ED50 Oral
Method: (§2) Certain formula 1a compounds have also shown in vivo antimicrobial activity against experimental bacterial infections. When two doses of test compound were administered to mice in experimental infections, the activity observed was measured as an ED50 value [effective dose in mg/kg to protect 50% of the test animals: see Warren Wick, et al., J. Bacteriol. 81, 233-235 (1961)].

Staphylococcus aureus = test: ED50 vs. Staphylococcus aureus experimental infection in mice (Table V); type: in vivo; conditions: two doses, dose protecting 50% of animals
Method: as §2

[13] = tested on: Streptococcous pneumoniae; test: ED50 vs. Streptococcous pneumoniae experimental infection in mice (Table VII); type: in vivo; conditions: two doses; for ED50: Mus musculus
Method: as §2

Mycoplasma hyorhinis 29E = test: MIC, conventional broth-dilution microtiter test (Table IV); type: cell-based; conditions: broth-dilution microtiter; Mycoplasma hyorhinis 29E; read-out: MIC
Method: as §1

[14] = tested on: Mycoplasma gallisepticum 36H; test: as above; type: cell-based; conditions: Mycoplasmoides gallisepticum, 36H
Method: as §1

[15] = tested on: Pasteurella multocida 60A; test: as above; type: cell-based; conditions: broth-dilution microtiter; Pasteurella multocida 60A, avian isolate; read-out: MIC
Method: as §1

[16] = tested on: Pasteurella hemolytica 23C; test: as above; type: cell-based; conditions: broth-dilution microtiter; Pasteurella hemolytica 23C; read-out: MIC
Method: as §1

[17] = tested on: Mycoplasma gallisepticum 29C; test: as above; type: cell-based; conditions: Mycoplasmoides gallisepticum, 29C
Method: as §1

Streptococcus sp. 19F = test: as above; type: cell-based
Method: as §1

[18] = tested on: Pasteurella multocida 22A; test: as above; type: cell-based; conditions: broth-dilution microtiter; Pasteurella multocida 22A; read-out: MIC
Method: as §1

[19] = tested on: Pasteurella multocida 17E; test: as above; type: cell-based; conditions: broth-dilution microtiter; Pasteurella multocida 17E, bovine isolate; read-out: MIC
Method: as §1

[20] = tested on: Pasteurella hemolytica 22C; test: as above; type: cell-based; conditions: broth-dilution microtiter; Pasteurella hemolytica 22C; read-out: MIC
Method: as §1

[21] = tested on: Pasteurella hemolytica 41D; test: as above; type: cell-based; conditions: broth-dilution microtiter; Pasteurella hemolytica 41D; read-out: MIC
Method: as §1

[22] = tested on: Pasteurella multocida 40G; test: as above; type: cell-based; conditions: broth-dilution microtiter; Pasteurella multocida 40G; read-out: MIC
Method: as §1

[23] = tested on: Staphylococcus aureus 19C; test: as above; type: cell-based; conditions: broth-dilution microtiter; Staphylococcus aureus 19C; read-out: MIC
Method: as §1

Mycoplasma synoviae 40A = test: as above; type: cell-based; conditions: Mycoplasmopsis synoviae, 40A
Method: as §1

[24] = tested on: Mycoplasma hyopneumoniae S5972; test: as above; type: cell-based; conditions: Mesomycoplasma hyopneumoniae, S5972
Method: as §1

[25] = tested on: Bordetella bronchisepticum 95B; test: as above; type: cell-based
Method: as §1

[26] = tested on: Pasteurella multocida 68C; test: as above; type: cell-based; conditions: broth-dilution microtiter; Pasteurella multocida 68C; read-out: MIC
Method: as §1

Pasteurella multocida = test: Activity in Pasteurella multocida-infected one-day-old chicks (Table VIII); type: in vivo; conditions: subcutaneous 30 mg/kg × 2, 1 and 4 hours post-challenge, all non-medicated chicks died within 24 hours
Method: Table VIII summarizes the results of tests in which illustrative compounds were evaluated against a Pasteurella infection in one-day-old chicks. The compounds were administered parenterally after challenge of the chicks with Pasteurella multocida (0.1 mL of a 10^-4 dilution of a twenty-hour tryptose broth culture of an avian P. multocida given subcutaneously). In these tests, all non-medicated infected chicks died within 24 hours of Pasteurella challenge. In the tests summarized in Table VIII, the compounds were administered by subcutaneous injection at a dosage of 30 mg/kg, 1 and 4 hours post-challenge of the chicks with P. multocida.

[27] = sc, subcutaneous, read-out: ED50 Subcutaneous

How did the MIC ([1]; agar dilution, Streptococcus pneumoniae Park I) turn out when CCC1OC(=O)CC(O)C(C)C(OC2OC(C)C(O)C(N(C)C)C2O)C(CC=O)CC(C)C(=O)C=CC(C)=CC1CN1CC2CC=CCC2C1 (stereo not drawn) [Compound 37] was run?
The MIC was 0.125 µg/mL (≈ 0.178 µM).

And the MIC [2]?
Its MIC is 0.25 µg/mL (≈ 0.356 µM).

What about the MIC [3] of the same compound?
The MIC was 0.25 µg/mL (≈ 0.356 µM).

And the MIC [4]?
The MIC was 1 µg/mL (≈ 1.42 µM).

What about the MIC ([5]; agar dilution, Streptococcus Group D 2041, read-out: MIC) of the same compound?
The MIC was 0.25 µg/mL (≈ 0.356 µM).

And the MIC [6]?
Its MIC is 0.5 µg/mL (≈ 0.711 µM).

What about the MIC [7] of the same compound?
Its MIC is 0.25 µg/mL (≈ 0.356 µM).

What about the MIC ([8]; agar dilution, Streptococcus Group D X66, read-out: MIC) of the same compound?
Its MIC is 0.125 µg/mL (≈ 0.178 µM).

What about the MIC [9] of the same compound?
Its MIC is 0.25 µg/mL (≈ 0.356 µM).

What about the MIC ([10]; Staphylococcus epidermidis, 222) of the same compound?
Its MIC is 0.06 µg/mL (≈ 0.0854 µM).

What about the MIC [11] of the same compound?
Its MIC is 0.25 µg/mL (≈ 0.356 µM).

What about the MIC ([12]; Streptococcus pyogenes, C203) of the same compound?
The MIC was 0.06 µg/mL (≈ 0.0854 µM).

What about the ED50 (Streptococcus pyogenes) of the same compound?
The ED50 was 87 mg/kg.

And the ED50 (Staphylococcus aureus; po, read-out: ED50 Oral)?
The ED50 was 85 mg/kg.

What about the ED50 (Staphylococcus aureus; [27]) of the same compound?
Its ED50 is 2.74 mg/kg.

And the “ED50 Subcutaneous” value (Staphylococcus aureus; subcutaneous)?
The value was 3.92 mg/kg × 2 and 3.42 mg/kg × 2.

And the ED50 ([13]; po, read-out: ED50 Oral)?
Its ED50 is 87 mg/kg.

And the ED50 [13, 27]?
Its ED50 is 1.66 mg/kg.

And the “ED50 Subcutaneous” value ([13]; subcutaneous)?
The value was 2.97 mg/kg × 2.

How did the MIC ([1]; Streptococcus pneumoniae) turn out when CCC1OC(=O)CC(O)C(C)C(OC2OC(C)C(O)C(N(C)C)C2O)C(CC=O)CC(C)C(=O)C=CC(C)=CC1CN1CC2(C)CC1CC(C)(C)C2 (stereo not drawn) [Compound 23, 23-deoxy-23-(1,3,3-trimethyl-6-azabicyclo[3.2.1]octan-6-yl)-OMT] was run?
Its MIC is 0.06 µg/mL (≈ 0.0819 µM).

What about the MIC [2] of the same compound?
Its MIC is 0.5 µg/mL (≈ 0.682 µM).

And the MIC [3]?
The MIC was 0.5 µg/mL (≈ 0.682 µM).

And the MIC [4]?
Its MIC is 1 µg/mL (≈ 1.36 µM).

And the MIC [5]?
The MIC was 0.5 µg/mL (≈ 0.682 µM).

What about the MIC [6] of the same compound?
The MIC was 2 µg/mL (≈ 2.73 µM).

And the MIC [7]?
Its MIC is 0.5 µg/mL (≈ 0.682 µM).

And the MIC [8]?
The MIC was 0.5 µg/mL (≈ 0.682 µM).

And the MIC [9]?
Its MIC is 0.5 µg/mL (≈ 0.682 µM).

And the MIC ([10]; agar dilution, Staphylococcus epidermidis 222, read-out: MIC)?
Its MIC is 0.125 µg/mL (≈ 0.171 µM).

And the MIC [11]?
Its MIC is 0.5 µg/mL (≈ 0.682 µM).

What about the MIC ([12]; agar dilution, Streptococcus pyogenes C203, read-out: MIC) of the same compound?
Its MIC is 0.25 µg/mL (≈ 0.341 µM).

What about the ED50 (Streptococcus pyogenes) of the same compound?
The ED50 was 100 mg/kg.

What about the MIC (Mycoplasma hyorhinis 29E) of the same compound?
Its MIC is 1.56 µg/mL (≈ 2.13 µM).

And the MIC [14]?
The MIC was 3.12 µg/mL (≈ 4.26 µM).

And the MIC [15]?
The MIC was 1.56 µg/mL (≈ 2.13 µM).

And the MIC [16]?
Its MIC is 1.56 µg/mL (≈ 2.13 µM).

And the MIC [17]?
Its MIC is less than 0.048 µg/mL.

What about the MIC (Streptococcus sp. 19F) of the same compound?
Its MIC is less than 0.048 µg/mL.

And the MIC [18]?
Its MIC is 0.39 µg/mL (≈ 0.532 µM).

And the MIC [19]?
The MIC was 0.78 µg/mL (≈ 1.06 µM).

And the MIC [20]?
Its MIC is 1.56 µg/mL (≈ 2.13 µM).

And the MIC [21]?
The MIC was 1.56 µg/mL (≈ 2.13 µM).

What about the MIC [22] of the same compound?
The MIC was 0.78 µg/mL (≈ 1.06 µM).

What about the MIC [23] of the same compound?
Its MIC is 1.56 µg/mL (≈ 2.13 µM).

And the MIC (Mycoplasma synoviae 40A)?
Its MIC is less than 0.048 µg/mL.

And the MIC [24]?
Its MIC is 0.048 µg/mL (≈ 0.0655 µM).

And the MIC [25]?
Its MIC is 12.5 µg/mL (≈ 17.1 µM).

And the MIC [26]?
Its MIC is 0.78 µg/mL (≈ 1.06 µM).

And the ED50 (Staphylococcus aureus; [27])?
Its ED50 is 3.79 mg/kg.

And the “Number of Deaths/Number Treated” value (Pasteurella multocida)?
The value was 10/10.

What about the ED50 [13, 27] of the same compound?
The ED50 was 3.6 mg/kg.
